Key:
female rats = test: Plasma metabolite profiling after 28-day oral dosing, female rats (markers for peroxisomal proliferators); format: in vivo, rat; details: once daily gavage; for 16-Methylheptadecanoic acid, change in plasma relative to control / 17-Methyloctadecanoic acid, change in plasma relative to control / Cytosine, change in plasma relative to control / Phosphatidylcholine (C18:0/C22:6), change in plasma relative to control: marker direction down; for Coenzyme Q9, change in plasma relative to control / Gamma-Linolenic acid (C18:cis[6,9,12]3), change in plasma relative to control / Glycerol, lipid fraction, change in plasma relative to control / Palmitic acid (C16:0), change in plasma relative to control / Pantothenic acid, change in plasma relative to control / Threonic acid, change in plasma relative to control: marker direction up
Description: (§1) A group of each 5 male and female rats was dosed once daily with the indicated compounds (see tables below) at 10 and 100 mg/kg body weight per gavage over 28 days. Additional groups of each 5 male and female animals served as controls. Before starting the treatment period, animals, which were 62-64 days old when supplied, were acclimatized to the housing and environmental conditions for 7 days. All animals of the animal population were kept under the same constant temperature (20-24±3° C.) and the same constant humidity (30-70%). Each animal of the animal population was kept in a separate cage. The animals of the animal population are fed ad libitum. The food to be used was be essentially free of chemical or microbial contaminants. Drinking water was also offered ad libitum. Accordingly, the water was be free of chemical and microbial contaminants as laid down in the European Drinking Water Directive 98/83/EG. The illumination period was 12 hours light followed by 12 hours darkness (12 hours light, from 6:00 to 18:00, and 12 hours darkness, from 18:00 to 6:00).
(§2) In the morning of day 7, 14, and 28, blood was taken from the retroorbital venous plexus from fasted anaesthetized animals. From each animal, 1 ml of blood was collected with EDTA as anticoagulant. The samples were be centrifuged for generation of plasma. All plasma samples were covered with a N2 atmosphere and then stored at −80° C. until analysis.
(§3) For mass spectrometry-based metabolite profiling analyses plasma samples were extracted and a polar and a non-polar fraction was obtained. For GC-MS analysis, the non-polar fraction was […] with methanol under acidic conditions to yield the fatty acid methyl esters. Both fractions were further derivatised with O-methyl-hydroxyamine hydrochloride and pyridine to convert Oxo-groups to O-metyloximes and subsequently with a silyating agent […]. In LC-MS analysis, both fractions were reconstituted in appropriate solvent mixtures. HPLC was performed by gradient elution on reversed phase separation columns. For mass spectrometric detection metanomics proprietary technology was applied which allows target and high sensitivity MRM (Multiple Reaction Monitoring) profiling in parallel to a full screen analysis.
(§4) Following comprehensive analytical validation steps, the data for each analyte were normalized against data from pool samples. These samples were run in parallel through the whole process to account for process variability. The significance of treatment group values specific for sex, dose group and metabolite was determined by comparing means of the treated groups to the means of the respective untreated control groups using Student's t-test. Normalized treatment group values and their significance were fed into a database for further statistics and data mining processes.
(§5) The changes of the group of plasma metabolites being indicative for increased peroxisomal proliferation after treatment of the rats are shown in the following tables: […]

male rats = test: Plasma metabolite profiling after 28-day oral dosing, male rats (markers for peroxisomal proliferators); format: in vivo, rat; details: once daily gavage; for 16-Methylheptadecanoic acid, change in plasma relative to control / 17-Methyloctadecanoic acid, change in plasma relative to control / Coenzyme Q10, change in plasma relative to control / Proline, change in plasma relative to control / Threonine, change in plasma relative to control / Tyrosine, change in plasma relative to control / trans-4-Hydroxyproline, change in plasma relative to control: marker direction down; for Eicosatrienoic acid (C20:3), change in plasma relative to control: marker direction up
Description: as §1, §2, §3, §4, §5

## CCCCOC(=O)c1ccccc1C(=O)OCc1ccccc1 [Benzylbutyl Phthalate]
Female rats; fh7 (day 7)
  16-Methylheptadecanoic acid, change in plasma relative to control: 0.55
  17-Methyloctadecanoic acid, change in plasma relative to control: 0.78
  Cytosine, change in plasma relative to control: 0.77
  Phosphatidylcholine (C18:0/C22:6), change in plasma relative to control: 0.59
  Coenzyme Q9, change in plasma relative to control: 1.44
  Gamma-Linolenic acid (C18:cis[6,9,12]3), change in plasma relative to control: 1.98
  Glycerol, lipid fraction, change in plasma relative to control: 1.15
  Palmitic acid (C16:0), change in plasma relative to control: 1.48
  Pantothenic acid, change in plasma relative to control: 1.82
  Threonic acid, change in plasma relative to control: 1.20
Female rats; fh14 (day 14)
  16-Methylheptadecanoic acid, change in plasma relative to control: 0.66
  17-Methyloctadecanoic acid, change in plasma relative to control: 0.64
  Cytosine, change in plasma relative to control: 0.63
  Phosphatidylcholine (C18:0/C22:6), change in plasma relative to control: 0.86
  Coenzyme Q9, change in plasma relative to control: 1.50
  Gamma-Linolenic acid (C18:cis[6,9,12]3), change in plasma relative to control: 1.64
  Glycerol, lipid fraction, change in plasma relative to control: 1.48
  Palmitic acid (C16:0), change in plasma relative to control: 1.79
  Pantothenic acid, change in plasma relative to control: 2.06
  Threonic acid, change in plasma relative to control: 1.53
Female rats; fh28 (day 28)
  16-Methylheptadecanoic acid, change in plasma relative to control: 0.85
  17-Methyloctadecanoic acid, change in plasma relative to control: 0.69
  Cytosine, change in plasma relative to control: 0.79
  Phosphatidylcholine (C18:0/C22:6), change in plasma relative to control: 0.81
  Coenzyme Q9, change in plasma relative to control: 1.78
  Gamma-Linolenic acid (C18:cis[6,9,12]3), change in plasma relative to control: 2.08
  Glycerol, lipid fraction, change in plasma relative to control: 2.43
  Palmitic acid (C16:0), change in plasma relative to control: 1.94
  Pantothenic acid, change in plasma relative to control: 2.42
  Threonic acid, change in plasma relative to control: 1.74
Male rats; mh7 (day 7)
  16-Methylheptadecanoic acid, change in plasma relative to control: 0.24
  17-Methyloctadecanoic acid, change in plasma relative to control: 0.37
  Coenzyme Q10, change in plasma relative to control: 0.51
  Proline, change in plasma relative to control: 0.74
  Threonine, change in plasma relative to control: 0.55
  Tyrosine, change in plasma relative to control: 0.74
  trans-4-Hydroxyproline, change in plasma relative to control: 0.69
  Eicosatrienoic acid (C20:3), change in plasma relative to control: 2.56
Male rats; mh14 (day 14)
  16-Methylheptadecanoic acid, change in plasma relative to control: 0.31
  17-Methyloctadecanoic acid, change in plasma relative to control: 0.28
  Coenzyme Q10, change in plasma relative to control: 0.34
  Proline, change in plasma relative to control: 0.85
  Threonine, change in plasma relative to control: 0.69
  Tyrosine, change in plasma relative to control: 0.83
  trans-4-Hydroxyproline, change in plasma relative to control: 0.65
  Eicosatrienoic acid (C20:3), change in plasma relative to control: 3.12
Male rats; mh28 (day 28)
  16-Methylheptadecanoic acid, change in plasma relative to control: 0.20
  17-Methyloctadecanoic acid, change in plasma relative to control: 0.30
  Coenzyme Q10, change in plasma relative to control: 0.27
  Proline, change in plasma relative to control: 0.84
  Threonine, change in plasma relative to control: 0.81
  Tyrosine, change in plasma relative to control: 0.97
  trans-4-Hydroxyproline, change in plasma relative to control: 0.83
  Eicosatrienoic acid (C20:3), change in plasma relative to control: 4.12

## CCOC(=O)C(C)(C)Oc1ccc(Cl)cc1 [Clofibrate]
Female rats; fh7 (day 7)
  16-Methylheptadecanoic acid, change in plasma relative to control: 0.55
  17-Methyloctadecanoic acid, change in plasma relative to control: 0.48
  Cytosine, change in plasma relative to control: 0.87
  Phosphatidylcholine (C18:0/C22:6), change in plasma relative to control: 0.88
  Coenzyme Q9, change in plasma relative to control: 1.86
  Gamma-Linolenic acid (C18:cis[6,9,12]3), change in plasma relative to control: 2.04
  Glycerol, lipid fraction, change in plasma relative to control: 1.39
  Palmitic acid (C16:0), change in plasma relative to control: 1.05
  Pantothenic acid, change in plasma relative to control: 1.07
  Threonic acid, change in plasma relative to control: 1.23
Female rats; fh14 (day 14)
  16-Methylheptadecanoic acid, change in plasma relative to control: 0.75
  17-Methyloctadecanoic acid, change in plasma relative to control: 0.57
  Cytosine, change in plasma relative to control: 0.86
  Phosphatidylcholine (C18:0/C22:6), change in plasma relative to control: 0.71
  Coenzyme Q9, change in plasma relative to control: 1.64
  Gamma-Linolenic acid (C18:cis[6,9,12]3), change in plasma relative to control: 1.88
  Glycerol, lipid fraction, change in plasma relative to control: 1.64
  Palmitic acid (C16:0), change in plasma relative to control: 1.38
  Pantothenic acid, change in plasma relative to control: 1.75
  Threonic acid, change in plasma relative to control: 1.30
Female rats; fh28 (day 28)
  16-Methylheptadecanoic acid, change in plasma relative to control: 0.75
  17-Methyloctadecanoic acid, change in plasma relative to control: 0.77
  Cytosine, change in plasma relative to control: 1.00
  Phosphatidylcholine (C18:0/C22:6), change in plasma relative to control: 0.53
  Coenzyme Q9, change in plasma relative to control: 2.55
  Gamma-Linolenic acid (C18:cis[6,9,12]3), change in plasma relative to control: 7.00
  Glycerol, lipid fraction, change in plasma relative to control: 4.99
  Palmitic acid (C16:0), change in plasma relative to control: 2.31
  Pantothenic acid, change in plasma relative to control: 1.22
  Threonic acid, change in plasma relative to control: 1.30
Male rats; mh7 (day 7)
  16-Methylheptadecanoic acid, change in plasma relative to control: 0.24
  17-Methyloctadecanoic acid, change in plasma relative to control: 0.35
  Coenzyme Q10, change in plasma relative to control: 0.45
  Proline, change in plasma relative to control: 0.78
  Threonine, change in plasma relative to control: 0.68
  Tyrosine, change in plasma relative to control: 0.87
  trans-4-Hydroxyproline, change in plasma relative to control: 0.77
  Eicosatrienoic acid (C20:3), change in plasma relative to control: 1.65
Male rats; mh14 (day 14)
  16-Methylheptadecanoic acid, change in plasma relative to control: 0.21
  17-Methyloctadecanoic acid, change in plasma relative to control: 0.27
  Coenzyme Q10, change in plasma relative to control: 0.60
  Proline, change in plasma relative to control: 0.80
  Threonine, change in plasma relative to control: 1.02
  Tyrosine, change in plasma relative to control: 0.95
  trans-4-Hydroxyproline, change in plasma relative to control: 0.64
  Eicosatrienoic acid (C20:3), change in plasma relative to control: 1.72
Male rats; mh28 (day 28)
  16-Methylheptadecanoic acid, change in plasma relative to control: 0.28
  17-Methyloctadecanoic acid, change in plasma relative to control: 0.37
  Coenzyme Q10, change in plasma relative to control: 0.47
  Proline, change in plasma relative to control: 0.87
  Threonine, change in plasma relative to control: 1.06
  Tyrosine, change in plasma relative to control: 1.02
  trans-4-Hydroxyproline, change in plasma relative to control: 0.57
  Eicosatrienoic acid (C20:3), change in plasma relative to control: 2.54

— patent US9304136B2, “Means and methods for assessing increased peroxisomal proliferation” (BASF SE, priority 2008, dated 2016)
